Source: paper PMC9835529, “Investigation of Novel Quinoline–Thiazole Derivatives as Antimicrobial Agents: In Vitro and In Silico Approaches” (ACS Omega, 2022)
Values after ≈ are worked out from the molar mass of the structure shown.

Experiments:
[1] = tested on: C. glabrata ATCC 90030; test: Anticandidal broth microdilution (EUCAST EDef 7.1), MIC90; format: cell-based, Candida glabrata; conditions: Nakaseomyces glabratus, ATCC90030, C. glabrata ATCC 90030
Text: (§1) E. coli (ATCC 35218), E. coli (ATCC 25922), S. aureus (ATCC 6538), methicillin-resistant S. aureus (MRSA) (clinical isolate), S. typhimurium (ATCC 13311), and K. pneumoniae (NCTC 9633) cells for antibacterial effect, and C. albicans (ATCC 24433), C. glabrata (ATCC 90030), C. krusei (ATCC 6258), and C. parapsilosis (ATCC 22019) for the antifungal effect of the final compounds were used to determine the MIC90 values. The broth microdilution procedure specified in the M07-A9 document of the Clinical and Laboratory Standards Institute (CLSI) was used for antibacterial study,[55] and the EDef 7.1 document published by EUCAST was used for the antifungal study.[56] For both activity studies, the detailed procedures were explained in previous studies.[57],[58]

[2] = tested on: Candida parapsilosis ATCC 22019; test: as above; format: cell-based; conditions: Lodderomyces parapsilosis, ATCC22019, C. parapsilosis ATCC 22019; read-out: MIC90
Text: as §1

[3] = tested on: Candida krusei ATCC 6258; test: as above; format: cell-based; conditions: Pichia kudriavzevii, ATCC6258, C. krusei ATCC 6258; read-out: MIC90
Text: as §1

[4] = tested on: Candida albicans ATCC 24433; test: as above; format: cell-based; conditions: Candida albicans, ATCC24433, C. albicans ATCC 24433; read-out: MIC90
Text: as §1

[5] = target: T1, Lanosterol 14α-demethylase (LMD, CYP51A1) (Candida glabrata, UniProt P50859); test: LDM (CYP51A1) inhibition by LC-MS-MS quantification of ergosterol level; format: cell-based; conditions: C. glabrata; for inhibition at 0.06 µg/mL: 0.06 μg/mL; for inhibition at 0.06 µg/mL / inhibition at 0.24 µg/mL / inhibition at 0.98 µg/mL: read-out: CYP51A1 Inhibition%; for inhibition at 0.24 µg/mL: 0.24 μg/mL; for inhibition at 0.98 µg/mL: 0.98 μg/mL
T1 construct: tested against Candida strains via the determination of ergosterol production; endogenous in cells; host or cells: C. glabrata (ATCC 90030)
T1 sequence (P50859 whole entry): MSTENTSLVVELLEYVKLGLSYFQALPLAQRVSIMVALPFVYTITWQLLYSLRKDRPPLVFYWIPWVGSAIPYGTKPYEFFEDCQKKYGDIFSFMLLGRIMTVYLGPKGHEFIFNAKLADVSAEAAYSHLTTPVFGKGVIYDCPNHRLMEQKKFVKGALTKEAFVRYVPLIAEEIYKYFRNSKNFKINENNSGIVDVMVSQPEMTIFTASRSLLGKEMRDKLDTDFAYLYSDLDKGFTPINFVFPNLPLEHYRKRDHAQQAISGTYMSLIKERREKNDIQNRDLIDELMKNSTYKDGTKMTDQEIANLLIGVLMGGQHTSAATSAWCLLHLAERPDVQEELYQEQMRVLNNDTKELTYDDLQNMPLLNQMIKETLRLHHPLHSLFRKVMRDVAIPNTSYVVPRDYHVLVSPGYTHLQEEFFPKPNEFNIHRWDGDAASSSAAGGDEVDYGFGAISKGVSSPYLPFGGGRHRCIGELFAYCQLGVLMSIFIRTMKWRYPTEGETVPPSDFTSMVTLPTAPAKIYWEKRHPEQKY
Protocol: (§2) The activity of the target compounds was tested against Candida strains via the determination of ergosterol production.
(§3) Ergosterol level was determined using the extract of total sterols from C. albicans (and its other species) following the method described by Breivik and Owades.[63] Quantification of the ergosterol level in this extract was carried out by the recently described method.[58],[64]−[66] According to these described studies, in the current work, compounds 4b, 4e, 4f, and 4h–m were undertaken to investigate their action mechanism. Thus, the LC-MS-MS-based method that quantifies the ergosterol level was applied. […]. Ergosterol quantity in negative control samples was regarded as 100%. All concentrations were analyzed in quadruplicate, and the results were expressed as mean ± standard deviation (SD).

[6] = tested on: NIH/3T3 cells; test: Cytotoxicity on NIH/3T3 healthy cell line; format: cell-based; conditions: Mus musculus, NIH3T3, 24 h incubation
Protocol: NIH/3T3 cells were incubated in Dulbecco’s modified Eagle’s medium (DMEM) (Sigma-Aldrich, St. Louis, MO), added with fetal calf serum, penicillin (100 IU/mL), streptomycin ([…]), and 7.5% NaHCO3 at 37 °C in a humidified atmosphere of 95% air and 5% CO2. NIH/3T3 cells were seeded into the 96-well plates at a density of 1 × 10^4 cells. After 24 h of incubating period, the culture media were removed, and test compounds were added. After 24 h of incubation period, colorimetric measurements were performed by a microplate reader (Biotek) at 540 nm. Inhibition % at all concentrations was determined using the formula below, and the IC50 values were calculated from a dose–response curve obtained by plotting the percentage inhibition versus the log concentration with the use of Microsoft Excel 2013.

[7] = tested on: methicillin-resistant S. aureus (MRSA) (clinical isolate); test: Antibacterial broth microdilution (CLSI M07-A9), MIC90; format: cell-based; conditions: Staphylococcus aureus
Text: (§4) The broth microdilution procedure specified in the M07-A9 document of the Clinical and Laboratory Standards Institute (CLSI) was used for antibacterial study,[55] and the EDef 7.1 document published by EUCAST was used for the antifungal study.[56] For both activity studies, the detailed procedures were explained in previous studies.[57],[58]

[8] = tested on: Staphylococcus aureus ATCC 6538; test: as above; format: cell-based; conditions: Staphylococcus aureus, ATCC6538; S. aureus ATCC 6538; read-out: MIC90
Text: as §4

[9] = tested on: Klebsiella pneumoniae NCTC 9633; test: as above; format: cell-based; conditions: NCTC9633, K. pneumoniae NCTC 9633
Text: as §4

[10] = tested on: E. coli ATCC 25922; test: as above; format: cell-based; conditions: Escherichia coli, ATCC25922
Text: as §4

[11] = tested on: Salmonella typhimurium ATCC 13311; test: as above; format: cell-based; conditions: Salmonella enterica; S. typhimurium ATCC 13311
Text: as §4

[12] = tested on: Escherichia coli ATCC 35218; test: as above; format: cell-based; conditions: Escherichia coli, ATCC35218; E. coli ATCC 35218
Text: as §4

[13] = tested on: Lanosterol 14α-demethylase (LMD, CYP51A1); test: LDM (CYP51A1) inhibition by LC-MS-MS quantification of ergosterol level; format: cell-based
Protocol: as §2, §3

[14] = target: T2, human aromatase enzyme (CYP19A) (Homo sapiens, UniProt P11511); test: Aromatase (CYP19A) Inhibitor Screening Kit (Fluorometric); format: biochemical
T2 construct: purchased Bio Vision
T2 sequence (P11511 1-503): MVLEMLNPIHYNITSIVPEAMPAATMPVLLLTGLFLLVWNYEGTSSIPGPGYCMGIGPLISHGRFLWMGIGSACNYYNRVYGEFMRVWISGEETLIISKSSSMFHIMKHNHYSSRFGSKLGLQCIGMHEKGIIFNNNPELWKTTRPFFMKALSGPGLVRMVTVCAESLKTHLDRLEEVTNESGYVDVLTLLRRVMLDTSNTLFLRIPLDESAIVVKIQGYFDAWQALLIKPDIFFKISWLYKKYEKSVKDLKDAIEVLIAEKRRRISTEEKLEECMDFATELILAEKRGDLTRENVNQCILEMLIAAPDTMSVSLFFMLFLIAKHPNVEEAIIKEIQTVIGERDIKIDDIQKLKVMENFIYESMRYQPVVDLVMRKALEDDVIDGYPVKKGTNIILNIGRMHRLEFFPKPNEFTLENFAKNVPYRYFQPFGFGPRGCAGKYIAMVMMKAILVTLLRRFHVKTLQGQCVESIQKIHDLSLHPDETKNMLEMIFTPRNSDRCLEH

SMILES	MIC90 [1] [µg/mL]	MIC90 [2] [µg/mL]	MIC90 [3] [µg/mL]	MIC90 [4] [µg/mL]	melting point [°C]	effect on ergosterol production / LMD enzyme inhibition (in words) [5]	inhibition at 0.06 µg/mL [5] [%]	inhibition at 0.24 µg/mL [5] [%]	IC50 [6] [µM]	MIC90 [7] [µg/mL]	MIC90 [8] [µg/mL]	MIC90 [9] [µg/mL]	MIC90 [10] [µg/mL]	MIC90 [11] [µg/mL]	MIC90 [12] [µg/mL]	IC50 [14] [µM]	effect on ergosterol production / LMD enzyme inhibition (in words) ([13]; C. parapsilosis)	CYP51A1 Inhibition% ([13]; C. parapsilosis, 0.06 μg/mL) [%]	CYP51A1 Inhibition% ([13]; C. parapsilosis, 0.24 μg/mL) [%]	CYP51A1 Inhibition% ([13]; C. parapsilosis, 0.98 μg/mL) [%]	other results
COc1ccc2nc(Cl)c(/C=N/Nc3nc(-c4ccc(C#N)cc4)cs3)cc2c1 [4e]	< 0.06	3.91 (≈ 9.31 µM)	62.5 (≈ 149 µM)	3.91 (≈ 9.31 µM)	240 to 242	did not decrease the ergosterol production compared to the standard drugs	16.7 ± 0.774	18.3 ± 0.785	> 1000	> 1000	> 1000	> 1000	> 1000	> 1000	> 1000	–	–	–	–	–	inhibition at 0.98 µg/mL [5]: 21.7 ± 0.955%
COc1ccc2nc(Cl)c(C=NNc3nc(-c4ccc(C)cc4)cs3)cc2c1 [4f]	< 0.06	3.91 (≈ 9.56 µM)	3.91 (≈ 9.56 µM)	> 1000	194 to 196	showed their anticandidal activity via LMD enzyme inhibition	42.1 ± 1.56	53.8 ± 2.39	> 1000	> 1000	> 1000	> 1000	> 1000	> 1000	> 1000	–	–	–	–	–	inhibition at 0.98 µg/mL [5]: 65.1 ± 1.68%
COc1ccc2nc(Cl)c(/C=N/Nc3nc(-c4cccc([N+](=O)[O-])c4)cs3)cc2c1 [4i]	1.95 (≈ 4.43 µM)	1.95 (≈ 4.43 µM)	1.95 (≈ 4.43 µM)	1.95 (≈ 4.43 µM)	212 to 214	–	–	–	8.54 ± 0.26	> 1000	> 1000	> 1000	> 1000	> 1000	> 1000	0.033 ± 0.001	–	–	–	–	effect on ergosterol production / LMD enzyme inhibition (in words) ([13]; C. krusei): did not decrease the ergosterol production compared to the standard drugs; CYP51A1 Inhibition% ([13]; C. krusei, 0.06 μg/mL): 11.662 ± 0.479%; CYP51A1 Inhibition% ([13]; C. krusei, 0.24 μg/mL): 14.178 ± 0.655%; CYP51A1 Inhibition% ([13]; C. krusei, 0.98 μg/mL): 18.361 ± 0.767%
COc1ccc2nc(Cl)c(C=NNc3nc(-c4cccc(F)c4)cs3)cc2c1 [4j]	> 1000	< 0.06	62.5 (≈ 151 µM)	> 1000	221 to 223	–	–	–	10 ± 0.39	> 1000	> 1000	> 1000	> 1000	> 1000	> 1000	0.047 ± 0.001	showed their anticandidal activity via LMD enzyme inhibition	41.867 ± 0.968	55.281 ± 1.174	63.508 ± 1.948	–
COc1cccc(-c2csc(N/N=C/c3cc4cc(OC)ccc4nc3Cl)n2)c1 [4k]	1.95 (≈ 4.59 µM)	1.95 (≈ 4.59 µM)	1.95 (≈ 4.59 µM)	1.95 (≈ 4.59 µM)	217 to 220	–	–	–	12 ± 0.44	> 1000	> 1000	> 1000	> 1000	> 1000	> 1000	0.038 ± 0.001	did not decrease the ergosterol production compared to the standard drugs	11.449 ± 0.518	15.662 ± 0.616	17.437 ± 0.861	–
COc1ccc2nc(Cl)c(C=NNc3nc(-c4ccncc4)cs3)cc2c1 [4l]	1.95 (≈ 4.93 µM)	1.95 (≈ 4.93 µM)	> 1000	1.95 (≈ 4.93 µM)	250 to 257	–	–	–	> 1000	> 1000	> 1000	> 1000	> 1000	> 1000	> 1000	0.042 ± 0.002	showed their anticandidal activity via LMD enzyme inhibition	40.328 ± 1.326	56.137 ± 0.928	62.949 ± 2.626	–
